From ChEMBL document CHEMBL4828751, “Discovery of novel tubulin/HDAC dual-targeting inhibitors with strong antitumor and antiangiogenic potency” (Eur J Med Chem, 2021)

Experiments:
HepG2 = assay: Antiproliferative activity against human HepG2 cells assessed as cell growth inhibition after 72 hrs by SRB assay; assay type: functional, cell-based; conditions: HepG2, 72 h
U-937 = assay: Antiproliferative activity against human U-937 cells assessed as cell growth inhibition after 72 hrs by CCK8 assay; assay type: functional, cell-based; conditions: U-937, 72 h
MGC-803 = assay: Antiproliferative activity against human MGC-803 cells assessed as cell growth inhibition after 72 hrs by SRB assay; assay type: functional, cell-based; conditions: MGC-803, 72 h
HeLa = assay: Antiproliferative activity against human HeLa cells assessed as cell growth inhibition after 72 hrs by SRB assay; assay type: functional, cell-based
A549 = assay: Antiproliferative activity against human A549 cells assessed as cell growth inhibition after 72 hrs by SRB assay; assay type: functional, cell-based; conditions: A549, 72 h
MCF7 = assay: Antiproliferative activity against human MCF7 cells assessed as cell growth inhibition after 72 hrs by SRB assay; assay type: functional, cell-based; conditions: MCF7, 72 h
Histone deacetylase 11 = target: T1, Histone deacetylase 11 (Homo sapiens, UniProt Q96DB2); assay: Inhibition of HDAC11 (unknown origin)
T1 sequence (Q96DB2 whole entry): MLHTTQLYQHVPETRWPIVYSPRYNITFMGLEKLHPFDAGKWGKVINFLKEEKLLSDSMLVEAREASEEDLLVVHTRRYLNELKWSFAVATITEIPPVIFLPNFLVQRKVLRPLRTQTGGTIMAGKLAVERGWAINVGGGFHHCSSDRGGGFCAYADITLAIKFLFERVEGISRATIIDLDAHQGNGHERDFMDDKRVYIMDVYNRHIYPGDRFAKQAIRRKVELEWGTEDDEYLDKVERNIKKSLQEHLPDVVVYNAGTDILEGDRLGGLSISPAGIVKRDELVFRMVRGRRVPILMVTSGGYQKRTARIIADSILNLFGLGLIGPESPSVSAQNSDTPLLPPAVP

Histone deacetylase 2 = Histone deacetylase 2 (Homo sapiens, UniProt Q92769); assay: Inhibition of HDAC2 (unknown origin)
Histone deacetylase 1 = Histone deacetylase 1 (Homo sapiens, UniProt Q13547); assay: Inhibition of HDAC1 (unknown origin)
Histone deacetylase 3 = Histone deacetylase 3 (Homo sapiens, UniProt O15379); assay: Inhibition of HDAC3 (unknown origin)
Histone deacetylase 8 = target: T2, Histone deacetylase 8 (Homo sapiens, UniProt Q9BY41); assay: Inhibition of HDAC8 (unknown origin)
T2 sequence (Q9BY41 whole entry): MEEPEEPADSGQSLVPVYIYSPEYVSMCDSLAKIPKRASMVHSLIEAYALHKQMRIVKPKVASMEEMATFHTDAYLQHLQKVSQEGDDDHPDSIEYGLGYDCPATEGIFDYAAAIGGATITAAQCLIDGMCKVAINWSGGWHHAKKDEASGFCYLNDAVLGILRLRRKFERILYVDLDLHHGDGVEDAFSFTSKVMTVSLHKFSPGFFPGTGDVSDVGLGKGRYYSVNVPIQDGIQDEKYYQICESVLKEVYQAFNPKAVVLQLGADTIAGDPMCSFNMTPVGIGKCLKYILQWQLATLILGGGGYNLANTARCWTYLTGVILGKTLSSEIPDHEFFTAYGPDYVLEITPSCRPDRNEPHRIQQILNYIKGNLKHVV

Tubulin = assay: Inhibition of tubulin polymerization (unknown origin) measured after 1 min by fluorescence assay; assay type: protein-complex assay, Homo sapiens
Histone deacetylase = assay: Inhibition of HDAC (unknown origin); assay type: protein assay, Homo sapiens

Chain of Histone deacetylase 1 (Q13547 whole entry): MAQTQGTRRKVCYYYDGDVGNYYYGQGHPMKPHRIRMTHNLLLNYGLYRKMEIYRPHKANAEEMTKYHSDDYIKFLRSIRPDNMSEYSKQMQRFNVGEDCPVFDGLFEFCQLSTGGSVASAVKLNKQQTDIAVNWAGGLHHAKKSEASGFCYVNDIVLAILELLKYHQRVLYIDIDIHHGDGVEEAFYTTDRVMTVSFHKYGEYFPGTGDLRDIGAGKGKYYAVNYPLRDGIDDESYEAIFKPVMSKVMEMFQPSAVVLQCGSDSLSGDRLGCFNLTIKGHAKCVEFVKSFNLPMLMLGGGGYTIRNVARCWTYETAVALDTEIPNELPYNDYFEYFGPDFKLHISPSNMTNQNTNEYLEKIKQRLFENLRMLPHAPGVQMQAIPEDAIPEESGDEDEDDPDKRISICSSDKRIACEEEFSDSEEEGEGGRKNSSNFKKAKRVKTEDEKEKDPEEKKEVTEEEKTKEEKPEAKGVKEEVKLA
Chain of Histone deacetylase 2 (Q92769 whole entry): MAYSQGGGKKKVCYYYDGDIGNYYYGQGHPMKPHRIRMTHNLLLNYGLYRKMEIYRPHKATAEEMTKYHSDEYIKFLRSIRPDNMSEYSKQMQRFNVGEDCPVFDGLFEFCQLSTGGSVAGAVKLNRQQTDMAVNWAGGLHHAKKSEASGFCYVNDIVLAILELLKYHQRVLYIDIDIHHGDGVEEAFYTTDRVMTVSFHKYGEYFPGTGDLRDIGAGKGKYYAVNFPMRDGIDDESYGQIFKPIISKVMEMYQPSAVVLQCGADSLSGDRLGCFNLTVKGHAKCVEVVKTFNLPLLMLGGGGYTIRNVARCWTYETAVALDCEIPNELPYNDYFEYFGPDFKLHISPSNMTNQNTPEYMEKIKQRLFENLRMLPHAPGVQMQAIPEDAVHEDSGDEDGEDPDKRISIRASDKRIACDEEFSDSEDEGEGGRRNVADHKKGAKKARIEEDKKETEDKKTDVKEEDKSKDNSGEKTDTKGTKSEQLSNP
Chain of Histone deacetylase 3 (O15379 whole entry): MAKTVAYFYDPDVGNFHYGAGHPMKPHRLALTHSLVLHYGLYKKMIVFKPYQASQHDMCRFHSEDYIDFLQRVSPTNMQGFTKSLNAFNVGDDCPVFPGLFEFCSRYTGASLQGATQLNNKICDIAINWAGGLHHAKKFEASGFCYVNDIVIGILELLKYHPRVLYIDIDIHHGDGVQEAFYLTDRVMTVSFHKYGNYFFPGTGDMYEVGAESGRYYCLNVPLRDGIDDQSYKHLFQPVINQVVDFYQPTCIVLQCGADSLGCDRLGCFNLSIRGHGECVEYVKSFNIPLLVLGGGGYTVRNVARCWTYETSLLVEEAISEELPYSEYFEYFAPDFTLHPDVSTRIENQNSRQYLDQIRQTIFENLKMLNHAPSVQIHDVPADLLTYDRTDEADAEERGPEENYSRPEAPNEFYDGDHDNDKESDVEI

| SMILES | IC50 (HepG2) | IC50 (U-937) | IC50 (MGC-803) | IC50 (HeLa) | IC50 (A549) | IC50 (MCF7) | IC50 (Histone deacetylase 11) | IC50 (Histone deacetylase 2) | IC50 (Histone deacetylase 1) | IC50 (Histone deacetylase 3) | IC50 (Histone deacetylase 8) | IC50 (Tubulin) | IC50 (Histone deacetylase) | IC50 (Tubulin; read-out: IC50) |
| --- | --- | --- | --- | --- | --- | --- | --- | --- | --- | --- | --- | --- | --- | --- |
| COc1ccc(/C=C\c2cc(OC)c(OC)c(OC)c2)cc1OCCCC(=O)Nc1ccccc1N | > 5000 nM | 5780 nM | > 5000 nM | 740 nM | 3240 nM | 4280 nM |  |  |  |  |  |  |  |  |
| COc1ccc(C(=O)c2cc(OC)c(OC)c(OC)c2)cc1Oc1ccc(C(=O)Nc2ccccc2N)cn1 | > 5000 nM | > 5000 nM | > 5000 nM | > 5000 nM | > 5000 nM | > 5000 nM |  |  |  |  |  |  |  |  |
| COc1ccc(/C=C\c2cc(OC)c(OC)c(OC)c2)cc1Oc1ccc(C(=O)NO)cc1 | 4550 nM | 3500 nM | 927 nM | 1470 nM | 1470 nM | 1470 nM |  |  |  |  |  |  |  |  |
| COc1ccc(/C=C\c2cc(OC)c(OC)c(OC)c2)c(/C=C/C(=O)Nc2ccccc2N)c1 | 2760 nM | 3750 nM | 301 nM | 1960 nM | 4690 nM | 2120 nM |  |  |  |  |  |  |  |  |
| COc1ccc(/C=C\c2cc(OC)c(OC)c(OC)c2)cc1/C=C/C(=O)NO | 252 nM | 805 nM | 208 nM | 257 nM | 254 nM | 158 nM |  |  |  |  |  |  |  |  |
| COc1ccc(/C=C\c2cc(OC)c(OC)c(OC)c2)cc1OCC(=O)Nc1ccccc1N | > 5000 nM | > 5000 nM | > 5000 nM | > 5000 nM | > 5000 nM | > 5000 nM |  |  |  |  |  |  |  |  |
| COc1ccc(C(=O)c2cc(OC)c(OC)c(OC)c2)cc1OCc1ccc(C(=O)Nc2ccccc2N)cc1 | > 5000 nM | > 5000 nM | > 5000 nM | > 5000 nM | > 5000 nM | > 5000 nM |  |  |  |  |  |  |  |  |
| COc1ccc(/C=C\c2cc(OC)c(OC)c(OC)c2)c(/C=C/C(=O)NO)c1 | 164 nM | 995 nM | 146 nM | 61 nM | 2230 nM | 641 nM |  |  |  |  |  |  |  |  |
| COc1ccc(C(=O)c2cc(OC)c(OC)c(OC)c2)cc1/C=C/C(=O)Nc1ccccc1N | 1160 nM | 2250 nM | 1100 nM | 1180 nM | 3210 nM | 828 nM |  |  |  |  |  |  |  |  |
| COc1ccc(/C=C\c2cc(OC)c(OC)c(OC)c2)cc1Oc1ccc(C(=O)Nc2ccccc2N)cn1 | 4920 nM | 3220 nM | 1290 nM | > 5000 nM | > 5000 nM | 2610 nM |  |  |  |  |  |  |  |  |
| O=C(NCC1(c2nc(-c3ccccc3)cs2)CCOCC1)c1cccc(-c2noc(C(F)(F)F)n2)c1 |  |  |  |  |  |  | Not Active | Not Active | Not Active | Not Active | Not Active |  |  |  |
| COc1ccc(/C=C\c2cc(OC)c(OC)c(OC)c2)cc1OCCCCC(=O)Nc1ccccc1N | > 5000 nM | > 5000 nM | > 5000 nM | > 5000 nM | > 5000 nM | > 5000 nM |  |  |  |  |  |  |  |  |
| O=C(CCCCCCC(=O)Nc1ccccc1)NO [VORINOSTAT] |  |  |  |  |  |  |  |  |  |  |  | Not Active |  |  |
| COc1ccc(C(=O)c2cc(OC)c(OC)c(OC)c2)cc1OCC(=O)Nc1ccccc1N | > 5000 nM | 758 nM | > 5000 nM | > 5000 nM | > 5000 nM | > 5000 nM |  |  |  |  |  |  |  |  |
| COc1ccc(/C=C\c2cc(OC)c(OC)c(OC)c2)cc1OCC(=O)NO | 122 nM | > 5000 nM | 13 nM | 64 nM | 285 nM | 419 nM |  |  |  |  |  |  |  |  |
| COc1ccc(C(=O)c2cc(OC)c(OC)c(OC)c2)cc1OCCCCC(=O)NO | > 5000 nM | > 5000 nM | > 5000 nM | > 5000 nM | > 5000 nM | > 5000 nM |  |  |  |  |  |  |  |  |
| COc1ccc(C(=O)c2cc(OC)c(OC)c(OC)c2)cc1OCCCCC(=O)Nc1ccccc1N | > 5000 nM | > 5000 nM | > 5000 nM | > 5000 nM | > 5000 nM | > 5000 nM |  |  |  |  |  |  |  |  |

| SMILES | IC50 (HepG2) | IC50 (U-937) | IC50 (MGC-803) | IC50 (HeLa) | IC50 (A549) | IC50 (MCF7) | IC50 (Histone deacetylase 11) | IC50 (Histone deacetylase 2) | IC50 (Histone deacetylase 1) | IC50 (Histone deacetylase 3) | IC50 (Histone deacetylase 8) | IC50 (Tubulin) | IC50 (Histone deacetylase) | IC50 (Tubulin; read-out: IC50) |
| --- | --- | --- | --- | --- | --- | --- | --- | --- | --- | --- | --- | --- | --- | --- |
| COc1ccc(C(=O)c2cc(OC)c(OC)c(OC)c2)cc1Oc1ccc(C(=O)NO)cc1 | > 5000 nM | > 5000 nM | > 5000 nM | > 5000 nM | > 5000 nM | > 5000 nM |  |  |  |  |  |  |  |  |
| COc1ccc(C(=O)c2cc(OC)c(OC)c(OC)c2)cc1OCCCC(=O)NO | > 5000 nM | > 5000 nM | > 5000 nM | > 5000 nM | > 5000 nM | > 5000 nM |  |  |  |  |  |  |  |  |
| COc1ccc(/C=C\c2cc(OC)c(OC)c(OC)c2)cc1Oc1ccc(C(C)(C)C(=O)NO)cc1 | > 5000 nM | > 5000 nM | > 5000 nM | > 5000 nM | > 5000 nM | > 5000 nM |  |  |  |  |  |  |  |  |
| COc1ccc(/C=C\c2cc(OC)c(OC)c(OC)c2)cc1Oc1ccc(C(=O)Nc2ccccc2N)cc1 | 4700 nM | 4330 nM | 1360 nM | > 5000 nM | > 5000 nM | 1570 nM |  |  |  |  |  |  |  |  |
| COc1ccc(C(=O)c2cc(OC)c(OC)c(OC)c2)cc1OCCCC(=O)Nc1ccccc1N | > 5000 nM | > 5000 nM | > 5000 nM | > 5000 nM | > 5000 nM | > 5000 nM |  |  |  |  |  |  |  |  |
| COc1ccc(/C=C\c2cc(OC)c(OC)c(OC)c2)cc1OCc1ccc(C(=O)Nc2ccccc2N)cc1 | 3410 nM | 1790 nM | 604 nM | 2210 nM | 2210 nM | 1470 nM |  |  |  |  |  |  |  |  |
| COc1ccc(/C=C\c2cc(OC)c(OC)c(OC)c2)cc1OCCCCC(=O)NO | 3560 nM | 3320 nM | 1130 nM | 189 nM | 4810 nM | 2810 nM |  |  |  |  |  |  |  |  |
| COc1ccc(/C=C\c2cc(OC)c(OC)c(OC)c2)cc1Oc1ccc(C(=O)NO)cn1 | > 5000 nM | 3320 nM | 1090 nM | 2440 nM | 2440 nM | 485 nM |  |  |  |  |  |  |  |  |
| COc1ccc(C(=O)c2cc(OC)c(OC)c(OC)c2)cc1OCc1ccc(C(=O)NO)cc1 | > 5000 nM | > 5000 nM | > 5000 nM | > 5000 nM | > 5000 nM | > 5000 nM |  |  |  |  |  |  |  |  |
| COc1ccc(C(=O)c2cc(OC)c(OC)c(OC)c2)cc1OCC(=O)NO | 521 nM | 1130 nM | 105 nM | 753 nM | > 5000 nM | 189 nM |  |  |  |  |  |  | 250 nM | 19600 nM |
| COc1ccc(/C=C\c2cc(OC)c(OC)c(OC)c2)cc1Oc1ccc(C(C)(C)C(=O)Nc2ccccc2N)cc1 | > 5000 nM | > 5000 nM | > 5000 nM | > 5000 nM | > 5000 nM | > 5000 nM |  |  |  |  |  |  |  |  |
| COc1ccc(/C=C\c2cc(OC)c(OC)c(OC)c2)cc1OCc1ccc(C(=O)NO)cc1 | 1330 nM | 389 nM | 182 nM | 440 nM | 440 nM | 817 nM |  |  |  |  |  |  | 390 nM | 8600 nM |
| COc1ccc(C(=O)c2cc(OC)c(OC)c(OC)c2)cc1Oc1ccc(C(=O)NO)cn1 | > 5000 nM | > 5000 nM | > 5000 nM | > 5000 nM | > 5000 nM | > 5000 nM |  |  |  |  |  |  |  |  |
| COc1ccc(C(=O)c2cc(OC)c(OC)c(OC)c2)c(/C=C/C(=O)Nc2ccccc2N)c1 | 1560 nM | 1680 nM | 1610 nM | 1040 nM | 3210 nM | 1180 nM |  |  |  |  |  |  |  |  |
| COc1ccc(/C=C\c2cc(OC)c(OC)c(OC)c2)cc1OCCCC(=O)NO | 81 nM | 2540 nM | 63 nM | 31 nM | 371 nM | 982 nM |  |  |  |  |  |  | 1400 nM | 5200 nM |
| COc1ccc(C(=O)c2cc(OC)c(OC)c(OC)c2)cc1Oc1ccc(C(=O)Nc2ccccc2N)cc1 | > 5000 nM | > 5000 nM | > 5000 nM | > 5000 nM | > 5000 nM | > 5000 nM |  |  |  |  |  |  |  |  |
